Experiments:
CSK protein = CSK protein (Homo sapiens (Human), UniProt P41240); test: CSK Inhibition Assay; type: biochemical
Protocol: Test compound was dissolved in DMSO at 10 mM. 45 uL of compound was transferred into a 384-well compound source plate (LABCYTE cat #P-05525) and serially diluted at 1:3 ratio to create a 11-point dilutions. The same volume of DMSO was adopted as high control. 20 nL of these compounds DMSO dilutes were dispensed into a new 384-well assay plate by Echo 550. […] 15 uL of kinase assay buffer containing CSK protein and substrate was transferred to assay plate and incubated at RT for 30 minutes. Kinase assay buffer supplemented with substrate peptides was employed as low control to monitor the background. 4 μM of ATP was prepared in kinase assay buffer and 5 μL of ATP solution was added to each well to start the reaction. The assay plate was incubated at 25° C. for 90 minutes and the reaction was stopped by adding 40 μL of 0.5 M EDTA.
(§1) Phosphorylated fluorescent-tagged peptides were differentiated from non-phosphorylated peptides by separating using Caliper EZ Reader II and the detection was directly converted to conversion ratio.
(§2) For estimation of IC50, the % substrate conversion values are transformed to % Inhibition Ratio by applying the following equation: […]

LCK protein = LCK protein (Homo sapiens (Human), UniProt P06239); test: LCK Inhibition Assay; type: biochemical
Sequence of LCK protein (P06239 whole entry): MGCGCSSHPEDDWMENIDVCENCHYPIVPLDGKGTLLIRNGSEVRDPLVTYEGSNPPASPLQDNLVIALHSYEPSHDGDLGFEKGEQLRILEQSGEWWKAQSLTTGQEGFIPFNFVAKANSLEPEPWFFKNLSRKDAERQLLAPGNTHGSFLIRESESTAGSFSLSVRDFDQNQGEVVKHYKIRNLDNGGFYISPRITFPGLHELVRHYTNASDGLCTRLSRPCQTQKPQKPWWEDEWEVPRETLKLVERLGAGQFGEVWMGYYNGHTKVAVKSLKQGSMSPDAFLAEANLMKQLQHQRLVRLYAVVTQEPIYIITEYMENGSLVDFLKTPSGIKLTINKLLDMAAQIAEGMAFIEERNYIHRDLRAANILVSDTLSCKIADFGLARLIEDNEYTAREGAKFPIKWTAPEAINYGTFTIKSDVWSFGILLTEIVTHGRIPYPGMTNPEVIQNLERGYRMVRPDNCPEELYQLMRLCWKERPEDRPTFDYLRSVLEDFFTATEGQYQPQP
Protocol: Test compound was dissolved in DMSO at 10 mM. 45 uL of compound was transfer into a 384-well compound source plate (LABCYTE cat #P-05525) and serially diluted at 1:3 ratio to create a 11-point dilutions. The same volume of DMSO was adopted as high control. 20 nL of these compounds DMSO dilutes were dispensed into a new 384-well assay plate by Echo 550. LCK protein (0.50 nM, Cama Biosciences, cat #08-170), florescent labeled substrate FLPeptide4 (2 μM, PerkinElmer, cat #760348) was prepared in kinase assay buffer (50 mM HEPES (pH 7.5), 10 mM MgCl2, 0.01% Brij-35, 2 mM DTT and 0.005 mg/ml BSA). 15 uL of kinase assay buffer containing LCK protein and substrate was transferred to assay plate and incubate at RT for 30 minutes. Kinase assay buffer supplemented with substrate peptides was employed as low control to monitor the background. 400 μM ATP was prepared in kinase assay buffer and 5 μL of ATP solution was added to each well to start the reaction. The assay plate was incubated at 25° C. for 90 minutes and the reaction was stopped by adding 40 μL of 0.5 M EDTA.
as §1, §2

IC50 (CSK protein) [nM]	IC50 (LCK protein) [nM]	SMILES
13.4	< 100	O=S(=O)(Nc1cccc(-c2nc(-c3ccccc3)sc2-c2ccnc(Nc3ccc(N4CCOCC4)nc3)n2)c1F)c1c(F)cccc1F [compound 3]
61.6	> 1000	Nc1nccc(-c2sc(-c3ccc(F)cn3)nc2-c2cccc(NS(=O)(=O)c3c(F)cccc3F)c2F)n1 [Compound 12]
2.8	< 100	CC(C)(C)c1nc(-c2cccc(NS(=O)(=O)c3c(F)cccc3F)c2F)c(-c2ccnc(Nc3ccc(N4CCOCC4)nc3)n2)s1 [compound 118]
13	> 1000	CNc1nccc(-c2sc(N(C)C)nc2-c2cccc(NS(=O)(=O)c3c(F)ccc(C)c3F)c2F)n1 [Compound 180]
48	> 1000	Cc1ccnc(-c2nc(-c3cccc(NS(=O)(=O)c4c(F)cccc4F)c3F)c(-c3ccnc(N)n3)s2)c1 [Compound 40]
306	> 1000	CCOc1ncc(-c2nc(-c3cccc(NS(=O)(=O)c4c(F)cccc4F)c3F)c(-c3ccnc(N)n3)s2)cn1 [compound 7]
6.5	> 1000	Cc1ccc(-c2nc(-c3cccc(NS(=O)(=O)c4c(Cl)ccc(C)c4Cl)c3F)c(-c3ccnc(NC4CC4)n3)s2)nn1 [Compound 175]
133	> 1000	Nc1nccc(-c2c(-c3cccc(NS(=O)(=O)c4c(F)cccc4F)c3F)nc(-c3ccccc3)n2O)n1 [Compound 84]
11.4	> 1000	CC(C)(C)c1nc(-c2cccc(NS(=O)(=O)c3c(F)ccc(Cl)c3F)c2F)c(-c2ccnc(NC3CC3)n2)s1 [Compound 188]
85.5	> 1000	CNc1nccc(-c2sc(-c3ccc(F)cn3)nc2-c2cccc(NS(=O)(=O)c3c(F)cc(F)cc3F)c2F)n1 [Compound 77]
436	> 1000	N#Cc1ccn2c(-c3ccnc(N)n3)c(-c3cccc(NS(=O)(=O)c4c(F)cccc4F)c3F)nc2c1 [Compound 101]
14.9	> 1000	CNc1nccc(-c2sc(N3CCCC3=O)nc2-c2cccc(NS(=O)(=O)c3c(F)ccc(C)c3F)c2F)n1 [Compound 124]
15.6	> 1000	CNc1nccc(-c2sc(-c3cncc(F)c3)nc2-c2cccc(NS(=O)(=O)c3c(F)ccc(C)c3F)c2F)n1 [Compound 53]
7.6	> 1000	O=S(=O)(Nc1cccc(-c2nc(-c3cncc(F)c3)sc2-c2ccnc(NCCO)n2)c1F)c1c(Cl)cccc1Cl [Compound 79]
91.7	> 1000	CNc1nccc(-c2c(-c3cccc(NS(=O)(=O)c4c(F)ccc(C)c4F)c3F)nc3ccc(F)cn23)n1 [Compound 106]
7.8	100 to 1000	CNc1nccc(-c2sc(N(C)CC(F)(F)F)nc2-c2cccc(NS(=O)(=O)c3c(F)cccc3F)c2F)n1 [Compound 181]
12.5	100 to 1000	CNc1nccc(-c2sc(-c3cncc(F)c3)nc2-c2cc(C)cc(NS(=O)(=O)c3c(F)cccc3F)c2F)n1 [compound 154]
7.4	100 to 1000	O=S(=O)(Nc1cccc(-c2nc(N3CCCCC3)sc2-c2ccnc(NC3CC3)n2)c1F)c1c(F)cccc1F [Compound 163]
4.9	> 1000	O=S(=O)(Nc1cccc(-c2nc(N3CCCCC3)sc2-c2ccnc(NC3CC3)n2)c1F)c1c(F)ccc(Cl)c1F [Compound 185]
2.5	< 100	CN1CCN(c2ccc(Nc3nccc(-c4cn(C5CCCCC5)nc4-c4cccc(NS(=O)(=O)c5c(F)cccc5F)c4F)n3)cn2)CC1 [compound 108]
18.5	100 to 1000	CNc1nccc(-c2sc(NC)nc2-c2cccc(NS(=O)(=O)c3c(F)cccc3F)c2F)n1 [Compound 114]
3.6	> 1000	CNc1nccc(-c2sc(-c3cnc(C)nc3)nc2-c2cccc(NS(=O)(=O)c3c(Cl)ccc(C)c3Cl)c2F)n1 [Compound 143]
22.3	> 1000	Cc1ccc(F)c(S(=O)(=O)Nc2cccc(-c3nc(-c4ccccc4)sc3-c3ccnc(N)n3)c2F)c1F [compound 36]
30.3	> 1000	CNc1nccc(-c2sc(-c3ccc(F)cn3)nc2-c2cccc(NS(=O)(=O)c3c(F)ccc(C)c3F)c2F)n1 [Compound 55]

IC50 (CSK protein) [nM]	IC50 (LCK protein) [nM]	SMILES
43.9	> 1000	C[C@H](Nc1nccc(-c2sc(-c3ccccc3)nc2-c2cccc(NS(=O)(=O)c3c(F)cccc3F)c2F)n1)C(N)=O [Compound 44]
6.8	100 to 1000	Cc1ncc(-c2nc(-c3cccc(NS(=O)(=O)c4c(Cl)cccc4Cl)c3F)c(-c3ccnc(N)n3)s2)cn1 [Compound 141]
4.6	< 100	O=S(=O)(Nc1cccc(-c2nn(C3CCCCC3)cc2-c2ccnc(Nc3ccc(N4CCOCC4)nc3)n2)c1F)c1c(F)cccc1F [Compound 109]
6.2	> 1000	Cc1ccc(Cl)c(S(=O)(=O)Nc2cccc(-c3nc(N4CCCCC4)sc3-c3ccnc(NC4CC4)n3)c2F)c1Cl [Compound 179]
6.9	100 to 1000	CNc1nccc(-c2sc(-c3cnc(C)nc3)nc2-c2cccc(NS(=O)(=O)c3c(Cl)cccc3Cl)c2F)n1 [Compound 148]
68.4	> 1000	COC(=O)NCCNc1nccc(-c2sc(-c3ccccc3)nc2-c2cccc(NS(=O)(=O)c3c(F)cccc3F)c2F)n1 [Compound 59]
13.4	> 1000	CNc1nccc(-c2sc(-c3cnc(C)nc3)nc2-c2cccc(NS(=O)(=O)c3c(F)ccc(C)c3F)c2F)n1 [Compound 69]
4.5	> 1000	Cc1ncc(-c2nc(-c3cccc(NS(=O)(=O)c4c(Cl)cccc4Cl)c3F)c(-c3ccnc(NC4CC4)n3)s2)cn1 [Compound 149]
5.4	> 1000	O=S(=O)(Nc1cccc(-c2nc(-c3cncc(F)c3)sc2-c2ccnc(NCCO)n2)c1F)c1c(F)ccc(Cl)c1F [Compound 172]
37.6	100 to 1000	Cc1ccc(-c2nc(-c3cccc(NS(=O)(=O)c4c(F)cccc4F)c3F)c(-c3ccnc(N)n3)s2)nc1 [Compound 43]
26.9	100 to 1000	COc1ccc(-c2nc(-c3cccc(NS(=O)(=O)c4c(F)cccc4F)c3F)c(-c3ccnc(N)n3)s2)cn1 [compound 27]
17.8	> 1000	O=S(=O)(Nc1cccc(-c2nc(-c3ccc(F)cn3)sc2-c2ccnc(NCCO)n2)c1F)c1c(Cl)cccc1Cl [Compound 133]
21.3	> 1000	Cc1ccc(Cl)c(S(=O)(=O)Nc2cccc(-c3nc(-c4ccc(F)cn4)sc3-c3ccnc(NC4CC4)n3)c2F)c1Cl [Compound 137]
9.9	100 to 1000	CNc1nccc(-c2sc(NCC(F)(F)F)nc2-c2cccc(NS(=O)(=O)c3c(F)cccc3F)c2F)n1 [Compound 165]
41.8	> 1000	Cc1cccn2c(-c3ccnc(N)n3)c(-c3cccc(NS(=O)(=O)c4c(F)cccc4F)c3F)nc12 [Compound 93]
120	> 1000	COC(=O)N[C@H](C)CNc1nccc(-c2sc(-c3ccccc3)nc2-c2cccc(NS(=O)(=O)c3c(F)cccc3F)c2F)n1 [Compound 60]
87.3	> 1000	CC(=O)N[C@@H](C)CNc1nccc(-c2sc(-c3ccccc3)nc2-c2cccc(NS(=O)(=O)c3c(F)cccc3F)c2F)n1 [Compound 41]
18.5	> 1000	CNc1nccc(-c2sc(N3CCC(F)(F)CC3)nc2-c2cccc(NS(=O)(=O)c3c(F)ccc(C)c3F)c2F)n1 [Compound 189]
634	100 to 1000	Nc1nccc(-c2sc(C3CCNCC3)nc2-c2cccc(NS(=O)(=O)c3c(F)cccc3F)c2F)n1 [Compound 122]
25.4	100 to 1000	CNc1nccc(-c2sc(N3CCC(F)(F)CC3)nc2-c2cccc(NS(=O)(=O)c3c(F)cccc3F)c2F)n1 [Compound 164]
26.1	> 1000	CNc1nccc(-c2sc(-c3cncc(F)c3)nc2-c2cc(OC)cc(NS(=O)(=O)c3c(F)cccc3F)c2F)n1 [Compound 72]
113	> 1000	CNc1nccc(-c2c(-c3cccc(NS(=O)(=O)c4c(Cl)cccc4Cl)c3F)nc3cc(OC)ccn23)n1 [Compound 145]
23.9	> 1000	CNc1nccc(-c2sc(-c3cnc(C)cn3)nc2-c2cccc(NS(=O)(=O)c3c(F)ccc(C)c3F)c2F)n1 [Compound 144]
11.2	> 1000	Cc1ccc(F)c(S(=O)(=O)Nc2cccc(-c3nc(N(C)C)sc3-c3ccnc(NC4CC4)n3)c2F)c1F [Compound 183]

From patent US12427146B2, “C-terminal SRC kinase inhibitors” (INVENTISBIO CO., LTD., priority 2018, dated 2025)
